The subject of one assay is G93A-SOD1 mutant mice. The assay can be described thus: Accelerating rotarod test in G93A-SOD1 mice, treatment from day 80. The class given is in vivo, mouse. The note with it: 20 mg/kg/day i.p. from day 80. On the procedure:
FIG. 35. P7C3A20 preserves performance in the accelerating rotarod test when administered at the time of disease onset to G93A-SOD1 mutant mice. Treatment of G93A-SOD1 mutant mice with 20 mg/kg/d of P7C3A20, P7C3 or Dimebon, or the appropriate vehicle, was initiated on day 80, with 20 mice per group. All compounds were administered at 20 mg/kg/day i.p. in divided doses. […] Only sibling pairs were analyzed at each time point. By week 16, there were 13 compound-vehicle pairs remaining in each group. […] All testing and analysis was performed blind to treatment group.
Having observed evidence of compound-mediated protection of spinal cord motor neurons, we next sought to determine whether motor performance might also be protected in these mice. Motor performance was monitored by the accelerating rotarod task standardly employed for evaluation of rodent models of ALS. We again initiated administration of P7C3, P7C3A20 or Dimebon on day 80, at 20 mg/kg/day, starting with no less than 20 mice per treatment group. Each animal in each group had its own sibling-matched vehicle control, and testing was conducted blind to treatment group. Rotarod training was initiated on day 50 for 2 days, and repeated weekly testing was conducted every 7 days thereafter. Each mouse was subjected to four trials of 600 seconds each, with a 20 minute recovery break between each trial. The latency time to fall was averaged across all 4 trials.
Beginning on day 50, mice were trained on the accelerating rotarod using Colombia Instruments Rotamex-5. Training consisted of mice being placed on a rotarod moving at 5 rpm for 300 seconds. Mice were trained to stay on the rotarod for the entire 300 seconds. If a mouse fell, it was placed back on the rotarod and the 300 second trial was started again. Training took place on two consecutive days. On day 52, mice ran their first full rotarod test, as described in Current Protocols for Neuroscience. The rotarod began at 4 rpm and accelerated to 40 rpm over 600 seconds, increasing by 1.25 rpm every 20 seconds. The time to fall was automatically recorded. […]
On the technique in general: In the rotarod test animals must keep their balance on a rotating rod.

Assay [1] concerns spinal cord motor neurons. Description: Spinal motor neuron survival (ChAT) in G93A-SOD1 mice, treatment from disease onset (day 80). Format: in vivo, mouse. The following applies: 20 mg/kg/day from day 80; days 90-120. On the procedure: FIG. 34A and FIG. 34B. P7C3A20 and P7C3 block motor neuron cell death in the spinal cord when administered at the time of disease onset to G93A-SOD1 mutant mice. Treatment of G93A-SOD1 mutant mice with 20 mg/kg/d of P7C3A20, P7C3 or Dimebon, or the appropriate vehicle, was initiated on day 80. Five mice from each group were sacrificed on days 90, 100, 110 and 120. The number of spinal cord motor neurons per cubic millimeter of lumbar spinal cord was determined through immunohistochemical staining for ChAT and quantification with NIH Image J software. All images were analyzed blind to treatment group. Spinal cord motor neurons in G93A-SOD1 mutant mice died over time as expected. Spinal cord motor neuron cell death was blocked by administration of P7C3A20. P7C3 was intermediately protective, while Dimebon had no neuroprotective efficacy. (FIG. 34A) Representative staining of ChAT of one ventral horn from each of the 5 mice in each treatment group at 110 days. (FIG. 34B) Graph representation.
Based on the promising results of early (day 40) administration of P7C3 to G93A-SOD1 mutant mice, we next sought to determine whether P7C3A20, P7C3 or Dimebon could protect ventral horn spinal motor neurons when administered at the expected time of disease onset (day 80). We initiated administration of either P7C3, P7C3A20 or Dimebon, each at a dose of 20 mg/kg/day, and analyzed motor neuron cell survival by staining lumbar spinal sections for choline acetyltransferase (ChAT). ChAT, the enzyme that synthesizes the neurotransmitter acetylcholine, serves as a marker for spinal cord motor neurons. All sections were counted blind to treatment group in order to quantify motor neuron survival, and five mice for each treatment group were analyzed at 90, 100, 110 and 120 days. Each treatment group was compared to its own sibling-matched group that received the corresponding vehicle. […]

Experimental findings from US10183011B2, “Anti-depression compounds” (Board of Regents of the University of Texas System, priority 2009, dated 2019) are described below.

Consider `Cc1ccc2c(c1)c1c(n2CCc2ccc(C)nc2)CCN(C)C1` [Dimebon, 2,3,4,5-Tetrahydro-2,8-dimethyl-5-(2-(6-methyl-3-pyridyl)ethyl)-1H-pyrido(4,3-b)indole, reference compound], for which the accelerating rotarod performance entry in the assay with G93A-SOD1 mutant mice is listed as “insufficiently active to preserve motor function”. Further, the “spinal motor neuron cell death” value in assay [1] is listed as “indistinguishable from vehicle treatment groups”.

As for `COc1cccc(NCC(F)Cn2c3ccc(Br)cc3c3cc(Br)ccc32)c1` (stereo not drawn) [Example P7C3A20, N-(3-(3,6-dibromo-9H-carbazol-9-yl)-2-fluoropropyl)-3-methoxyaniline], the accelerating rotarod performance result with G93A-SOD1 mutant mice is on record as “showed significantly better performance”. The “spinal motor neuron cell death” value in assay [1] is recorded as “provided significant protection from spinal motor neuron cell death”.

As to `OC(CNc1ccccc1)Cn1c2ccc(Br)cc2c2cc(Br)ccc21` (stereo not drawn) [Example P7C3], the accelerating rotarod performance entry in the assay on G93A-SOD1 mutant mice is recorded as “insufficiently active to preserve motor function”. Also, the “spinal motor neuron cell death” value in assay [1] is “provided intermediate protection on days 100 (p=0.048) and 110 (p=0.01)”.
